Measurements: the supplement of paper PMC10307832

Assays:
Test in all cases: relative viability (nuclei count vs DMSO), 5 days (fraction); higher = more cells survive
Ibrutinib + Phenformin = compound: C=CC(=O)N1CCC[C@@H](n2nc(-c3ccc(Oc4ccccc4)cc3)c3c(N)ncnc32)C1 [Ibrutinib] + N=C(N)NC(=N)NCCc1ccccc1 [Phenformin] (partner 250 µM)
Summary of the method: (§1)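 Lung cancer cell lines in 1536-well plates were dosed by pin tool the day after seeding, either with one drug alone or with a fixed anchor-drug dose plus five library-drug doses (not always all listed) in √10 steps. After 5 days, cells were fixed and their nuclei stained in one step (final 0.05% Triton X-100, 1% formaldehyde, 1 ug/ml Hoechst), then counted on 4× images. Relative viability is the nuclei count in treated wells divided by that in vehicle wells. Values are medians of duplicate plates.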

BMX-IN-1 + Lapatinib = compound: C=CC(=O)Nc1cc(-n2c(=O)ccc3cnc4ccc(-c5ccc(NS(C)(=O)=O)cc5)cc4c32)ccc1C [BMX-IN-1] + CS(=O)(=O)CCNCc1ccc(-c2ccc3ncnc(Nc4ccc(OCc5cccc(F)c5)c(Cl)c4)c3c2)o1 [Lapatinib] (partner 2 µM)
Summary of the method: as §1

PAC-1 + Phenformin = compound: C=CCc1cccc(/C=N/NC(=O)CN2CCN(Cc3ccccc3)CC2)c1O [PAC-1] + N=C(N)NC(=N)NCCc1ccccc1 [Phenformin] (partner 250 µM)
Summary of the method: as §1

PAC-1 + Olaparib = compound: C=CCc1cccc(/C=N/NC(=O)CN2CCN(Cc3ccccc3)CC2)c1O [PAC-1] + O=C(c1cc(Cc2n[nH]c(=O)c3ccccc23)ccc1F)N1CCN(C(=O)C2CC2)CC1 [Olaparib] (partner 8 µM)
Summary of the method: as §1

Cell Line | relative viability (Ibrutinib + Phenformin; first compound 0.01581 µM) | relative viability (Ibrutinib + Phenformin; first compound 0.05 µM) | relative viability (Ibrutinib + Phenformin; first compound 0.1581 µM) | relative viability (Ibrutinib + Phenformin; first compound 0.5 µM) | relative viability (BMX-IN-1 + Lapatinib; first compound 0.02 µM) | relative viability (BMX-IN-1 + Lapatinib; first compound 0.2 µM) | relative viability (BMX-IN-1 + Lapatinib; first compound 0.6325 µM) | relative viability (BMX-IN-1 + Lapatinib; first compound 2 µM) | relative viability (PAC-1 + Phenformin; first compound 0.02 µM) | relative viability (PAC-1 + Phenformin; first compound 0.06325 µM) | relative viability (PAC-1 + Phenformin; first compound 0.2 µM) | relative viability (PAC-1 + Phenformin; first compound 2 µM) | relative viability (PAC-1 + Olaparib; first compound 0.02 µM) | relative viability (PAC-1 + Olaparib; first compound 0.06325 µM) | relative viability (PAC-1 + Olaparib; first compound 0.2 µM) | relative viability (PAC-1 + Olaparib; first compound 2 µM) | relative viability (Ibrutinib + Phenformin; first compound 0.005 µM)
NCI-H596 | 0.635 | 0.704 | 0.607 | 0.635 | 0.987 | 1.13 | 1.12 | 0.935 | 0.739 | 1.03 | 0.783 | 0.785 | 0.633 | 0.715 | 0.607 | 0.665 | –
NCI-H838 | 0.491 | 0.581 | 0.519 | 0.537 | 1.3 | 1.16 | 1.2 | 1.04 | 0.509 | 0.585 | 0.46 | 0.572 | 0.715 | 0.735 | 0.727 | 0.656 | 0.492
NCI-H358 | – | 0.178 | 0.202 | 0.174 | 0.48 | 0.431 | 0.4 | 0.412 | 0.305 | 0.314 | 0.269 | 0.374 | 0.581 | 0.827 | 0.569 | 0.37 | 0.23
NCI-H647 | 0.467 | 0.411 | 0.592 | 0.605 | 1.3 | 0.957 | 1.43 | 0.949 | 0.609 | 0.504 | 0.431 | 0.571 | 0.616 | 0.492 | 0.544 | 0.236 | –
HCC-366 | 0.595 | 0.593 | 0.543 | 0.665 | 1.53 | 1.65 | 1.07 | 1.12 | 0.612 | 0.634 | 0.595 | 0.655 | 0.314 | 0.411 | 0.306 | 0.378 | 0.63
